{"source": "patent US9566265B2", "about": "“Carbazole compounds and therapeutic uses of the compounds” (Incuron, LLC, priority 2008, dated 2017)", "key": {"Bloodstream T. brucei": {"tested_on": "Bloodstream T. brucei", "assay": "T. brucei bloodstream form in vitro killing", "format": "cell-based, Trypanosoma brucei", "procedure": "Preliminary T. brucei inactivation experiments were performed in vitro. The life cycle of T. brucei involves a “procyclic” developmental stage in a tsetse fly, and a “bloodstream” form in humans. All studies were performed with the bloodstream stage of the parasite, because it is the disease-causing developmental stage.\nSuramin, a conventional anti-HAT drug, was used as a positive control.\nBloodstream T. brucei was seeded (3×10^3 cells/mL) in 24-well (500 uL of the media per well) plate. […] Control cultures received equal volumes of DMSO."}, "C. krusei": {"tested_on": "C. krusei", "assay": "in vitro susceptibility CLSI M27A3, MIC", "format": "cell-based", "conditions": "Pichia kudriavzevii, ATCC6258; strain ATCC 6258, WT, Susceptible (naturally fluconazole resistant); read-out: MIC* (48 hs)"}, "C. lipolytica": {"tested_on": "C. lipolytica", "assay": "in vitro susceptibility CLSI M27A3, MIC", "format": "cell-based", "conditions": "Yarrowia lipolytica, strain M159, WT, Susceptible", "source_text": "(§1) Other Candida spp. and genera: 1 C. rugosa (M83), 1 C. lipolytica (M159), C. lusitaniae (200450), 1 Cryptococcus neoformans (499), and 1 Debaryomyces hansenii."}, "C. lusitaniae": {"tested_on": "C. lusitaniae", "assay": "in vitro susceptibility CLSI M27A3, MIC", "format": "cell-based", "conditions": "Clavispora lusitaniae, strain 200450, WT, Susceptible", "source_text": "as §1"}, "Debaryomyces hansenii": {"tested_on": "Debaryomyces hansenii", "assay": "in vitro susceptibility CLSI M27A3, MIC", "format": "cell-based", "conditions": "strain 20124, WT, Susceptible", "source_text": "as §1"}, "C. guilliermondii": {"tested_on": "C. guilliermondii", "assay": "in vitro susceptibility CLSI M27A3, MIC", "format": "cell-based", "conditions": "Meyerozyma guilliermondii, strain ATCC6260, WT, Echinocandin cross-reduced susceptibility", "source_text": "(§2) (12): 1 C. orthopsilosis (981224), 1 C. metapsilosis (2006-113), C. parapsilosis (ATCC 22019 CLSI control), and C. guilliermondii (ATCC6260) (13)."}, "C. metapsilosis": {"tested_on": "C. metapsilosis", "assay": "in vitro susceptibility CLSI M27A3, MIC", "format": "cell-based", "conditions": "Lodderomyces metapsilosis, strain 2006-113, WT, Echinocandin cross-reduced susceptibility", "source_text": "as §2"}, "C. orthopsilosis": {"tested_on": "C. orthopsilosis", "assay": "in vitro susceptibility CLSI M27A3, MIC", "format": "cell-based", "conditions": "Lodderomyces orthopsilosis, strain 981224, WT, Echinocandin cross-reduced susceptibility", "source_text": "as §2"}, "C. parapsilosis": {"tested_on": "C. parapsilosis", "assay": "in vitro susceptibility CLSI M27A3, MIC", "format": "cell-based", "conditions": "Lodderomyces parapsilosis, ATCC22019, strain ATCC 22019, WT, Echinocandin cross-reduced susceptibility", "source_text": "as §2"}, "[1]": {"tested_on": "Af293 strain of A. fumigatus", "assay": "XTT viability assay", "format": "cell-based, Aspergillus fumigatus", "procedure": "This strain was selected because it is one of the best characterized strains and was the strain used for sequencing the A. fumigatus genome. XTT viability assay is based on the reduction of the tetrazolium salt (XTT) in the presence of menadione as an electron-coupling agent. There is a relationship between the number of viable fungi and the amount of XTT reduction (16).\nThe same methods previously described in performing the XTT assay (17) were used. Af293 conidia were plated on Sabouraud BHI slants with chloramphenicol and gentamicin (Becton Dickinson, Md.), incubated for 7 to 10 days at room temperature, and harvested by washing the slant with 10 ml of 0.05% Tween 20 in normal saline (NS). The conidial suspension then was passed through a 100-μm filter, counted on a hemacytometer, and diluted to 2.0×10^6 CFU/ml. Conidia then were diluted 1:50 in MOPS (morpholinepropanesulfonic acid)-buffered RPMI (pH 7.0). A stock solution of Example 15 dissolved in DMSO was used. […] Following the addition of drug-containing medium to each well, the conidial suspension (100 μl) was added (t=0 h). Control wells contained conidia, medium, and vehicle without drug. Blank wells consisted of medium only without conidia. […] One hundred microliters of the supernatant was transferred to a new plate, and the optical density at 450 nm (OD450) was determined by using a Labsystems Multiskan Plus plate reader. […]"}, "[2]": {"tested_on": "HCT-116, DLD1, Caki1 and MDA-MB-231 tumors", "assay": "various human tumour xenografts sc", "format": "in vivo, nude or SCID mice", "conditions": "tumor cells inoculated as a cell suspension", "protocol": "In this study, the antitumor effect and toxicity of the three carbazoles against HCT-8 and HT29 colon cancer tumors were compared with treatment beginning when the tumor size reached 150-200 mg (about 7 days after tumor transplantation)."}, "[3]": {"tested_on": "Caki1 human renal cell carcinoma cells", "assay": "Caki1 renal cell carcinoma xenograft efficacy test", "protocol": "In an efficacy test using these three compounds, athymic nude mice were inoculated subcutaneously with a suspension of Caki1 human renal cell carcinoma cells into both rear flanks. When at least one tumor in a mouse reached 20-50 mm^3, treatment was commenced. […] As a positive control, one group was treated with 40 mg/kg Sunitinib, an approved drug for the treatment of renal cell carcinoma. Treatment was given for 4 weeks on a 5 day on/2 day off schedule. After treatment was completed, mice were monitored for an additional 4 weeks to determine how quickly tumor growth returned to normal."}}, "note": "Where two headings read alike, the source gives them in different places.", "data": [{"smiles": "CCN(CC)CCn1c2ccc3c(c2c2c4c(ccc21)C(=O)CC4)CCC3=O", "note": "[Example 15]", "values": [{"measurement": "elimination of parasites", "setting": "Bloodstream T. brucei; 48 hrs, up to 200 nM Example 7, 20 nM Example 13, 3 nM Example 15", "result": "completely eliminated T. brucei"}, {"measurement": "IC50", "setting": "Bloodstream T. brucei; Trypanosoma brucei, read-out: IC50 (concentration that killed 50% of the parasites), bloodstream stage, 48 hrs of culture", "result": "~0.5", "unit": "nM"}, {"measurement": "MIC", "setting": "C. krusei", "result": 0.66, "unit": "µM"}, {"measurement": "MIC", "setting": "C. lipolytica; read-out: MIC* (24 hs)", "result": 0.02, "unit": "µM"}, {"measurement": "MIC", "setting": "C. lipolytica; read-out: MIC* (48 hs)", "result": 0.08, "unit": "µM"}, {"measurement": "MIC", "setting": "C. lusitaniae; read-out: MIC* (24 hs)", "result": 0.04, "unit": "µM"}, {"measurement": "MIC", "setting": "C. lusitaniae; read-out: MIC* (48 hs)", "result": 0.16, "unit": "µM"}, {"measurement": "MIC", "setting": "Debaryomyces hansenii; read-out: MIC* (24 hs)", "result": 0.16, "unit": "µM"}, {"measurement": "MIC", "setting": "Debaryomyces hansenii; read-out: MIC* (48 hs)", "result": 0.16, "unit": "µM"}, {"measurement": "MIC", "setting": "C. guilliermondii; read-out: MIC* (24 hs)", "result": 0.08, "unit": "µM"}, {"measurement": "MIC", "setting": "C. guilliermondii; read-out: MIC* (48 hs)", "result": 0.16, "unit": "µM"}, {"measurement": "MIC", "setting": "C. metapsilosis; read-out: MIC* (24 hs)", "result": 0.16, "unit": "µM"}, {"measurement": "MIC", "setting": "C. metapsilosis; read-out: MIC* (48 hs)", "result": 0.16, "unit": "µM"}, {"measurement": "MIC", "setting": "C. orthopsilosis; read-out: MIC* (24 hs)", "result": 0.16, "unit": "µM"}, {"measurement": "MIC", "setting": "C. orthopsilosis; read-out: MIC* (48 hs)", "result": 0.16, "unit": "µM"}, {"measurement": "MIC", "setting": "C. parapsilosis; read-out: MIC* (24 hs)", "result": 0.08, "unit": "µM"}, {"measurement": "MIC", "setting": "C. parapsilosis; read-out: MIC* (48 hs)", "result": 0.08, "unit": "µM"}, {"measurement": "IC50", "setting": "[1]; Aspergillus fumigatus, XTT assay at 24 h", "result": "~2500", "unit": "nM"}, {"measurement": "concentration for complete suppression of fungal growth", "setting": "[1]; visual inspection of the wells", "result": "greater than 12.5 μM"}, {"measurement": "antitumor efficacy", "setting": "[2]", "result": "antitumor efficacy"}, {"measurement": "weight loss", "setting": "[3]; 5 mg/kg oral, short-term", "result": "10-15%"}, {"measurement": "tumor growth inhibition compared to the vehicle control", "setting": "[3]; Day 24 (end of treatment), oral gavage 5 day on/2 day off, Example 7 30, Example 15 5, Example 13 25, Sunitinib 40 mg/kg", "result": 50, "unit": "%"}]}]}
